Data taken from the supplement of paper PMC10307832.

Tests used:
Assay in all cases: relative viability (nuclei count vs DMSO), 5 days (fraction); higher = more cells survive
QS11 + OSI-027 = compound: C1CC2=C(C1)C=C(C=C2)OC3=NC(=C4C(=N3)N(C=N4)CC5=CC=C(C=C5)C6=CC=CC=C6)N[C@@H](CC7=CC=CC=C7)CO [QS11] + COc1cccc2cc(-c3nc([C@H]4CC[C@H](C(=O)O)CC4)n4ncnc(N)c34)[nH]c12 [OSI-027] (partner 0.5 µM)
Method in brief: (§1)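 Relative viability was taken as the ratio of nuclei in treated wells to nuclei in vehicle wells. Lung cancer cell lines in 1536-well plates received compounds by pin tool one day after seeding, either one drug alone or a fixed anchor-drug dose plus five library-drug doses (not always all listed) in √10 steps. Nuclei were counted on 4× images after 5 days of treatment, and values are medians of duplicate plates.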

QS11 + Tozasertib = compound: C1CC2=C(C1)C=C(C=C2)OC3=NC(=C4C(=N3)N(C=N4)CC5=CC=C(C=C5)C6=CC=CC=C6)N[C@@H](CC7=CC=CC=C7)CO [QS11] + Cc1cc(Nc2cc(N3CCN(C)CC3)nc(Sc3ccc(NC(=O)C4CC4)cc3)n2)n[nH]1 [Tozasertib] (partner 0.1 µM)
Method in brief: as §1

QS11 + Vorinostat = compound: C1CC2=C(C1)C=C(C=C2)OC3=NC(=C4C(=N3)N(C=N4)CC5=CC=C(C=C5)C6=CC=CC=C6)N[C@@H](CC7=CC=CC=C7)CO [QS11] + O=C(CCCCCCC(=O)Nc1ccccc1)NO [Vorinostat] (partner 1 µM)
Method in brief: as §1

AZ628 + Lapatinib = compound: CC1=C(C=C(C=C1)NC(=O)C2=CC(=CC=C2)C(C)(C)C#N)NC3=CC4=C(C=C3)N=CN(C4=O)C [AZ628] + CS(=O)(=O)CCNCc1ccc(-c2ccc3ncnc(Nc4ccc(OCc5cccc(F)c5)c(Cl)c4)c3c2)o1 [Lapatinib] (partner 2 µM)
Method in brief: as §1

[1] = compound: C[As](C)SC[C@H](NC(=O)CC[C@H](N)C(=O)O)C(=O)NCC(=O)O [Darinaparsin] + O=C(CCCCCCC(=O)Nc1ccccc1)NO [Vorinostat] (partner 1 µM)
Method in brief: as §1

LCLC-97TM1
relative viability (QS11 + OSI-027; first compound 0.08 µM): 0.405
relative viability (QS11 + OSI-027; first compound 0.253 µM): 0.698
relative viability (QS11 + OSI-027; first compound 2.53 µM): 0.565
relative viability (QS11 + OSI-027; first compound 8 µM): 0.588
relative viability (QS11 + Tozasertib; first compound 0.08 µM): 0.2
relative viability (QS11 + Tozasertib; first compound 0.253 µM): 0.242
relative viability (QS11 + Tozasertib; first compound 2.53 µM): 0.199
relative viability (QS11 + Tozasertib; first compound 8 µM): 0.146
relative viability (QS11 + Vorinostat; first compound 0.253 µM): 0.722
relative viability (QS11 + Vorinostat; first compound 2.53 µM): 0.615
relative viability (QS11 + Vorinostat; first compound 8 µM): 0.85
relative viability (AZ628 + Lapatinib; first compound 0.08 µM): 1.01
relative viability (AZ628 + Lapatinib; first compound 0.253 µM): 1.01
relative viability (AZ628 + Lapatinib; first compound 0.8 µM): 1.37
relative viability (AZ628 + Lapatinib; first compound 2.53 µM): 1.2
relative viability (AZ628 + Lapatinib; first compound 8 µM): 0.152
relative viability ([1]; first compound 0.08 µM): 0.882
relative viability ([1]; first compound 0.8 µM): 0.862
relative viability ([1]; first compound 2.53 µM): 0.744
relative viability ([1]; first compound 8 µM): 0.895
